Assay results reported in patent US8395037B2, “Pharmaceutical compositions for treating/preventing motor organ diseases” (Mitsubishi Corporation, priority 2005, dated 2013).

Assays:
[1] = system: MMP-1; assay: MMP-1 production in cultured chondrocytes treated with cartilage degenerating factor (ELISA); assay type: cell-based, human; conditions: for Production of MMP-1: IL-1β or H2O2 treated chondrocytes, 50 or 100 μM, 24 h
Description: (§1) Chondrocytes isolated from human articular cartilage tissues were used for cultured cells. After obtaining informed consent, cartilage tissues were collected from surgically-removed tissues from eight osteoarthritis patients. The collected tissues were sliced and then treated in a liquid low-glucose Dulbecco's modified Eagle's medium (DMEM, manufactured by Gibco Co.) containing 1.5 mg/ml collagenase B at 37° C. overnight, to isolate chondrocytes for culture. The cells were normally cultured in a culture flask (culture area: 25 cm^2), and in a polystyrene culture dish (diameter: 6 cm) for use in the experiments. […]
(§2) Influence of hydroxylated C60 fullerene on cartilage matrix-degrading enzyme production which is enhanced by cartilage catabolism inducers was analyzed using the enzyme-linked immunoassay (ELISA) method.
(§3) Chondrocytes that had been isolated and cultured by the above method (1) were subjected to two passage cultures. […] After a 24 hour incubation, the culture supernatant was collected, and the concentrations of cartilage matrix-degrading enzymes, matrix metalloprotease (MMP)-1, 3, and 13, were measured.
(§4) The concentrations of MMP-1, MMP-3, and MMP-13 in the culture supernatant were determined using ELISA kits (kits for MMP-1 and MMP-3, manufactured by R&D Co.; and a kit for MMP-13, manufactured by Amersham), which is the standard technique currently known in the art. […] 100 μl of 1.5 N H3PO4 was added to each well to stop the color reaction, and the absorbance at 450 nm was measured using a microtiter plate reader. According to the instructions provided by the manufacturer, the measured concentrations were calibrated using a lyophilized control reagent.

[2] = system: MMP-3; assay: MMP-3 production in cultured chondrocytes treated with cartilage degenerating factor (ELISA); assay type: cell-based, human; conditions: for Production of MMP-3: IL-1β or H2O2 treated chondrocytes, 50 or 100 μM, 24 h
Description: as §1, §2, §3, §4

[3] = system: proteoglycan; assay: Cartilage matrix (proteoglycan) production in cultured chondrocytes (ELISA); assay type: cell-based, human; conditions: for Cartilage matrix (proteoglycan)-synthesizing ability: decreased by IL-1β or H2O2, 50 and 100 μM, 24 h
Description: Chondrocytes isolated from human articular cartilage tissues were used for cultured cells. After obtaining informed consent, cartilage tissues were collected from surgically-removed tissues from eight osteoarthritis patients. The collected tissues were sliced and then treated in a liquid low-glucose Dulbecco's modified Eagle's medium (DMEM, manufactured by Gibco Co.) containing 1.5 mg/ml collagenase B at 37° C. overnight, to isolate chondrocytes for culture. The cells were normally cultured in a culture flask (culture area: 25 cm^2), and in a polystyrene culture dish (diameter: 6 cm) for use in the experiments. The cell culture was performed using a DMEM medium added with inactivated fetal bovine serum (FBS, manufactured by TRACE Co.) at 10% volume of the medium, and also 2 mM L-glutamine, 25 mM HEPES, and penicillin and streptomycin at 100 units/ml, in either a CO2 incubator (normoxic condition) which was set at 5% CO2+95% air, or a low oxygen chamber (hypoxic condition) which was set at 1% O2+5% CO2+94% N2, at 37° C. under saturated humidity.
Influence of hydroxylated 60 fullerene on cartilage matrix (proteoglycan or type II collagen) production ability decreased by cartilage catabolism inducers was analyzed using ELISA.
Chondrocytes that had been isolated and cultured by the above method (1) were subjected to two secondary cultures. Then, these cells in a subconfluent state were disseminated into a 24 well-culture plate at 1×10^5 cells/well. After incubation for 12 hours, the wells were washed with PBS and the medium was replaced with a fresh 10% FBS-containing DMEM. […]
The production quantities (concentrations) of the cartilage matrix (proteoglycan and type II collagen) in the culture supernatant were determined using ELISA kits (a kit for proteoglycan, manufactured by BioSource; and a kit for type II collagen, manufactured by Chondrex, Inc.), which is the standard technique currently known in the art.

[4] = system: MMP-1; assay: MMP-1 concentration in synovial fluid of osteoarthritis model knee joints (ELISA); assay type: in vivo, rabbit; conditions: various concentrations, sequential measurement, versus control knees
Description: Sequential biochemical examinations of blood and synovial fluid were also performed (pre-administration and fourth- and eighth-week post-administration of water-solubilized fullerene). The observed biochemical examination items were (A) hepatic function (GOT and GPT), renal function (urea nitrogen and creatinine), and electrolytes (Na, K, and Cl), (B) extracellular matrix-degrading enzyme production ability (MMP-1, 3, and 13), and (C) cartilage matrix-synthesizing ability (proteoglycan). The items of (A) were measured by commercially available testing equipments and items of (B) and (C) were measured by ELISA method.

[5] = system: osteoarthritis model rabbits
Description: Osteoarthritis animal model was prepared according to a general method. NZW-strain male rabbits (2 to 2.5 kg, purchased from Kitayama Labes Co.) were habituated for about one week, and both knee joint sites were shaved and disinfected with an iodine antiseptic agent under anesthesia with a combined administration of ketamine hydrochloride and xylazine (intramuscular administration, or intravenous administration if the anesthetic effect was low). The epidermis inside the knee joints was incised to expose the anterior cruciate ligament and medial collateral ligament, which were then cut out. After confirming and incising the articular capsule, the medial meniscus was exposed and totally extracted. Tissues around the articular capsule, patellar tendon, and epidermis were sutured thereafter. At the time of suturing, the operated site was washed with a physiological salt solution containing an antibiotic (injectable Viccillin, Meiji Seika) (500 mg (titer) as ampicillin sodium/20.0 ml of physiological saline solution).
From the postoperative first week, 2.0 ml of a hydroxylated C60 fullerene solution (100 μM, adjusted with the solvent polyethylene glycol) was injected into the right knee joint cavity, and 2.0 ml of solvent alone was injected into the left knee joint cavity, using a 23-gauge injection needle intraarticularly twice a week. […] Thickness of the degenerated cartilage layer and the number of chondrocytes in the degenerated cartilage layer were measured. The thickness of the degenerated cartilage layer was expressed as a relative value assuming that the immediate postoperative thickness (zeroth week) was 100%.
Moreover, proteoglycan content decrease in articular cartilage involved with cartilage degeneration was evaluated by safranin O staining. The evaluation result was expressed as an area ratio (%) to immediate postoperative proteoglycan-stained area.

**Q.** For hydroxylated C60 fullerene, which “Production of MMP-1” value [1] is on record?
**A.** inhibited in all cases

**Q.** And the “Production of MMP-1” value ([1]; listed as fullerene)?
**A.** decreased the amount of MMP-1 produced

**Q.** What about the “Inhibitory effect on production of MMP-1” value ([1]; hypoxic condition) of the same substance?
**A.** also observed

**Q.** What about the “Production of MMP-3” value [2] of the same substance?
**A.** inhibited in all cases

**Q.** And the “Production of MMP-3” value ([2]; listed as fullerene)?
**A.** decreased the amount of MMP-3 produced

**Q.** And the “Inhibitory effect on production of MMP-3” value ([2]; hypoxic condition)?
**A.** also observed

**Q.** And the “Cartilage matrix (proteoglycan)-synthesizing ability” value [3]?
**A.** restored cartilage matrix synthesis

**Q.** What about the “Cartilage matrix (proteoglycan)-synthesizing ability” value ([3]; listed as hydroxylated 60 fullerene) of the same substance?
**A.** able to restore the decreased synthesizing ability

**Q.** What about the Proteoglycan synthesizing ability ([3]; fullerene alone, versus control groups) of the same substance?
**A.** increased as compared to that of the control groups

**Q.** What about the “MMP-1 concentration in synovial fluid” value [4] of the same substance?
**A.** MMP-1 production inhibitory effect was observed

**Q.** What about the “Chondrocytes and cartilage matrix, histology” value ([5]; 100 μM, 2.0 ml intraarticular twice a week, postoperative sixth and eighth week) of the same substance?
**A.** histologically maintained

**Q.** What about the “Degeneration of the knee joint cartilage tissue” value ([5]; 100 μM, 2.0 ml intraarticular twice a week, versus solvent alone) of the same substance?
**A.** mild

**Q.** What about the “Swelling/flare in articular local parts, influence on systemic condition” value ([5]; rabbit, in vivo) of the same substance?
**A.** neither swelling/flare in articular local parts nor influence on systemic condition was observed
